{
  "source": "patent US8642630B2",
  "about": "“Endogeneous repair factor production accelerators” (Ono Pharmaceutical Co., Ltd., priority 2002, dated 2014)",
  "key": {"[1]": {"system": "normal human umbilical cord vein vascular endothelial cells and normal human skin fibroblasts", "assay": "Measurement of angiogenesis acceleration action (in vitro), hollow organ formation, Example 9", "assay_type": "cell-based", "details": "10 days of culturing, FIG. 5", "experimental": "An angiogenesis kit (manufactured by Kurabo; constituted from normal human umbilical cord vein vascular endothelial cells and normal human skin fibroblasts) was cultured for 3 hours, and then the culture medium (the medium for angiogenesis use attached to the angiogenesis kit was used as the culture medium and cultured at 37° C. under a moist environment of 5% carbon dioxide-95% air, and a carbon dioxide incubator BNA-121D was used as the incubator) was changed and an agent to be tested was added to each well (0.5 ml/well). The medium exchange was carried out also on the 3rd, 6th and 8th days after commencement of the culturing and the fresh agent to be tested was added. The kind and concentration of the agent to be tested were untreated; DMSO: 0.1%; α-CD: 0.0118, 0.118 and 1.18 mg/ml; PGE2-αCD: 1, 10 and 100 nmol/l; Compound 3 (EP2 agonist), Compound 4 (EP4 agonist), EP1 agonist and EP3 agonist: 1, 10 and 100 nmol/l, VEGF: 0.1, 1 and 10 ng/ml; and HGF: 0.1, 1 and 10 ng/ml, and culturing was carried out by using 3 wells for each concentration. Fixation was carried out 10 days after the commencement of culturing, and staining of hollow organ with anti-CD31 antibody was carried out by using a hollow organ staining kit (manufactured by Kurabo). As the evaluation, Chalkley Grid (a grid lens, Kurabo) was mounted on the eyepiece of a microscope, and the hollow organ formation was evaluated by counting intersections of the randomly arrange points of Chalkley Grid with the formed hollow organ (by referring to the evaluation method of J. Pathol., 177, 275-283 (1995)). The counting was carried out at 12 positions per well, and the total was calculated.\nIn this connection, Compound 3 as an EP2 agonist ((5Z,9β,11α,13E)-17,17-propano-11,16-dihydroxy-9-chloro-20-norprost-5,13-dienoic acid) was dissolved in dimethyl sulfoxide (DMSO) to prepare 10^−4, 10^−5 and 10^−6 mol/l solutions which were then used by diluting 1/1000 time with the culture medium.\nCompound 4 as an EP4 agonist ((11α,13E,15α)-9-oxo-11,15-dihydroxy-16-(3-methoxymethylphenyl)-17,18,19,20-tetranor-5-thiaprost-13-enoic acid) was dissolved in dimethyl sulfoxide (DMSO) to prepare 10^−4, 10^−5 and 10^−6 mol/l solutions which were then used by diluting 1/1000 time with the culture medium.\nThe EP1 agonist ((13E)-(11α,15S,17S)-2,5-ethano-6,9-dioxo-11,15-dihydroxy-17,20-dimethylprost-13-enoic acid; the compound described in Example 1 in the specification of JP-A-11-322709) was dissolved in dimethyl sulfoxide (DMSO) to prepare 10^−4, 10^−5 and 10^−6 mol/l solutions which were then used by diluting 1/1000 time with the culture medium.\nThe EP3 agonist (11α,15α-dimethoxy-9-oxoprost-5Z,13E-dienoic acid; the compound described in Example 1 in the specification of WO98/34916) was dissolved in dimethyl sulfoxide (DMSO) to prepare 10^−4, 10^−5 and 10^−6 mol/l solutions which were then used by diluting 1/1000 time with the culture medium.\nThe PGE2-αCD was dissolved in distilled water for injection to prepare 10^−4, 10^−5 and 10^−6 mol/l solutions which were then used by diluting 1/1000 time with the culture medium.\nAs the VEGF (vascular endothelial growth factor), the 2 μg/ml solution of VEGF contained in the angiogenesis control reagent kit of Kurabo was diluted with the culture medium and used.\nAs the HGF (human hepatocyte growth factor), the 5 μg/ml solution of HGF purchased from R & D System-Funakoshi was diluted with the culture medium and used.\nThe counts of hollow organ formation in the untreated wells were compared with those of the wells treated with respective concentrations of test samples by Dunnett's test (two-sided test). The significance level was set to 5%.\n(§1) In this connection, the data were shown by average value of 3 wells and standard deviation."}, "VEGF": {"system": "VEGF", "assay": "Endogenous repair factor releasing action (in vitro), VEGF by ELISA, Example 10", "assay_type": "cell-based, human", "details": "100 nmol/l", "experimental": "(§2) An angiogenesis kit (manufactured by Kurabo; constituted from normal human umbilical cord vein vascular endothelial cells and normal human skin fibroblasts) was cultured for 3 hours, and then the culture medium (the medium for angiogenesis use attached to the angiogenesis kit was used as the culture medium and cultured at 37° C. under a moist environment of 5% carbon dioxide-95% air, and a carbon dioxide incubator BNA-121D was used as the incubator) was changed and an agent to be tested was added to each well (0.5 ml/well). HGF and VEGF concentrations in the culture supernatants were measured 3 days after the commencement of the culturing. Kinds and concentrations of the agent to be tested were untreated; DMSO: 0.1%; PGE1-αCD: 100 nmol/l; PGE2-αCD: 100 nmol/l; and Compound 3 (EP2 agonist) and Compound 4 (EP4 agonist): 100 nmol/l, and the culturing was carried out by using 3 wells for each concentration. The HGF and VEGF concentrations were measured by using an ELISA kit (R % D system-Funakoshi).\n(§3) In this connection, Compound 3 as an EP2 agonist ((5Z,9β,11α,13E)-17,17-propano-11,16-dihydroxy-9-chloro-20-norprost-5,13-dienoic acid) was dissolved in dimethyl sulfoxide (DMSO) to prepare a 10^−4 mol/l solution which was then used by diluting 1/1000 time with the culture medium.\n(§4) Compound 4 as an EP4 agonist ((11α,13E,15α)-9-oxo-11,15-dihydroxy-16-(3-methoxymethylphenyl)-17,18,19,20-tetranor-5-thiaprost-13-enoic acid) was dissolved in dimethyl sulfoxide (DMSO) to prepare a […] solution which was then used by diluting 1/1000 time with the culture medium.\n(§5) The PGE1-αCD and PGE2-αCD were dissolved in distilled water for injection to prepare 10^−4 mol/l solutions which were then used by diluting 1/1000 time with the culture medium.\n(§6) HGF and VEGF concentrations in the supernatants of the solvent control group were compared with those of the agent-treated groups by Dunnett's test (two-sided test). The significance level was set to 5%.\nas §1"}, "HGF": {"system": "HGF", "assay": "Endogenous repair factor releasing action (in vitro), HGF by ELISA, Example 10", "assay_type": "cell-based, human", "details": "100 nmol/l", "experimental": "as §2, §3, §4, §5, §6, §1"}, "[2]": {"details": "after 72 hours of culturing, average of 3 wells ± SD"}},
  "data": [
    {"compound": "COCc1cccc(C[C@H](O)/C=C/[C@H]2[C@H](O)CC(=O)[C@@H]2CCSCCCC(=O)O)c1", "note": "[Compound 4, (11α,13E,15α)-9-oxo-11,15-dihydroxy-16-(3-methoxymethylphenyl)-17,18,19,20-tetranor-5-thiaprost-13-enoic acid]", "values": [
      {"measurement": "hollow organ formation (Chalkley Grid count), in words", "setting": "[1]; 10 nmol/l and 100 nmol/l, vs untreated wells, Dunnett's test", "result": "significantly accelerated hollow organ formation"},
      {"measurement": "VEGF concentration in culture supernatant", "setting": "VEGF; [2]", "result": "2936 ± 69", "unit": "pg/mL"},
      {"measurement": "VEGF concentration in supernatants, in words", "setting": "VEGF; vs untreated, Dunnett's test", "result": "significantly increased HGF and VEGF concentrations"},
      {"measurement": "HGF concentration in culture supernatant", "setting": "HGF; [2]", "result": "379 ± 12", "unit": "pg/mL"},
      {"measurement": "HGF concentration in supernatants, in words", "setting": "HGF; vs untreated, Dunnett's test", "result": "significantly increased HGF and VEGF concentrations"}
    ]},
    {"compound": "CCCC[C@H](C)C[C@H](O)/C=C/[C@H]1[C@H](O)CC(=O)[C@@H]1CC(=O)C1CCC(C(=O)O)CC1", "note": "(stereo partly drawn) [EP1 agonist, (13E)-(11α,15S,17S)-2,5-ethano-6,9-dioxo-11,15-dihydroxy-17,20-dimethylprost-13-enoic acid, reference compound]", "values": [
      {"measurement": "hollow organ formation (Chalkley Grid count), in words", "setting": "[1]; 1, 10 and 100 nmol/l", "result": "did not exert influence upon hollow organ formation"}
    ]},
    {"compound": "CCCCC[C@@H](/C=C/[C@H]1[C@H](OC)CC(=O)[C@@H]1C/C=C\\CCCC(=O)O)OC", "note": "[EP3 agonist, 11α,15α-dimethoxy-9-oxoprost-5Z,13E-dienoic acid, reference compound]", "values": [
      {"measurement": "hollow organ formation (Chalkley Grid count), in words", "setting": "[1]; 1, 10 and 100 nmol/l", "result": "did not exert influence upon hollow organ formation"}
    ]},
    {"compound": "OC[C@H]1O[C@@H]2O[C@H]3[C@H](O)[C@@H](O)[C@@H](O[C@H]4[C@H](O)[C@@H](O)[C@@H](O[C@H]5[C@H](O)[C@@H](O)[C@@H](O[C@H]6[C@H](O)[C@@H](O)[C@@H](O[C@H]7[C@H](O)[C@@H](O)[C@@H](O[C@H]1[C@H](O)[C@H]2O)O[C@@H]7CO)O[C@@H]6CO)O[C@@H]5CO)O[C@@H]4CO)O[C@@H]3CO", "note": "[α-CD]", "values": [
      {"measurement": "hollow organ formation (Chalkley Grid count), in words", "setting": "[1]; 0.0118, 0.118 and 1.18 mg/ml", "result": "did not exert influence upon hollow organ formation"}
    ]}
  ]
}
